Measurements published in patent publication US9993553B2, “Methods and compositions for targeted release of molecules from nanoscale carriers” (The Regents of the University of California, priority 2013, dated 2018).
{6-FAM} = 6-carboxyfluorescein dye; {BHQ-1} = Black Hole Quencher-1

Key:
[1] = X-ray radiation cleavage of 6-FAM labelled DNA, fluorescence spectroscopy, with DMSO as hydroxyl radical scavenger; format: physicochemical; conditions: 100 Gy
Protocol: X-ray radiation studies were performed, using DMSO as a hydroxyl radical scavenger at concentrations from 0-100 mM. In a 24-well plate, 400 μL of purified 6-FAM-DNA-AuNPs were mixed with 400 μL of 2×DMSO solution, or PBS and the samples were irradiated with X-rays. After radiation, the AuNPs were removed from solution by centrifugation (13,000 rpm, 15 min) and supernatant fluorescence was measured (Excitation at 490 nm and Emission at 514 nm). Non-radiated controls were identically prepared and measured.
6-FAM has a high fluorescence yield (>80%) and high quenching when attached to AuNPs. The cleavage via X-ray irradiation was studied with optical fluorescence spectroscopy.
Black Hole Quencher®-1 DNA, coupled to 6-FAM, was purchased from IDT (6-FAM-5′-[…]-3′-BHQ-1®). It was irradiated with DMSO at concentrations from 0-100 mM in 24 well plates, and the fluorescence from cleaved DNA was measured. […] X-ray radiated and cleaved 6-FAM molecules were incubated with MCF-7 cells for 4 hours.

MCF-7 cells = test: Clonogenic assay with X-ray irradiation; format: cell-based
Protocol: MCF-7 cells were plated at a rate of 50,000 cells/ml in a 24-well cell culture plate. They were then incubated with DOX, DOX-DNA, and DOX-DNA-AuNPs for 12 hours, and then irritated with 0, 2, 5, and 10 Gy X-rays. The cells were then counted, using a hemocytometer, and replated in a 6 well plate at 1000 cell per well for the 0 and 2 Gy dose; 3000 cells for the 5 Gy; and 9000 for the 10 Gy. The plates were incubated for 14 days, and then fixed with gluteraldhyde and stained with crystal violet. The colonies with 50 or more cells were then counted.

Molecule | Effect of DMSO (hydroxyl radical scavenger) on cleavage / fluorescence ([1]; DMSO up to 100 mM) | Cleavage after X-ray radiation ([1]; zero DMSO) | Cleavage (fluorescence) after X-ray radiation in the presence of AuNPs ([1]; zero DMSO, mixture with AuNPs, no covalent conjugation) | Measured cell survivability (MCF-7 cells; 0 Gy) | Measured cell survivability (MCF-7 cells; 2 Gy) | Measured cell survivability (MCF-7 cells; 5 Gy) | Measured cell survivability (MCF-7 cells; 10 Gy) | Survivability of MCF-7 cells (MCF-7 cells; DOX alone, no radiation) | Toxicity to MCF-7 cells (MCF-7 cells; DOX alone, no radiation, 24 million free DOX in the cell)
6-FAM-5′-TTAGGGTTAGGG-3′-BHQ-1® (DNA, 5' {6-FAM}, 3' {BHQ-1}, backbone not given here) [Q-DNA-6-FAM, Black Hole Quencher-1 DNA coupled to 6-FAM, purchased from IDT] | significantly reduced the fluorescence | 25% | 4% | – | – | – | – | – | –
COc1cccc2c1C(=O)c1c(O)c3c(c(O)c1C2=O)C[C@@](O)(C(=O)CO)C[C@@H]3O[C@H]1C[C@H](N)[C@H](O)[C@H](C)O1 [DOX, doxorubicin] | – | – | – | 0.81 ± .01 | 0.61 ± .05 | 0.28 ± .02 | 0.07 ± .002 | 80% | about 20%
